Active and inactive are the calls of the source. The rule behind the calls is not given here. Peptide text beside a SMILES is read from it.
Tests used:
MCF7 [1] = experiment: Induction of cell death in human MCF7 cells at 25 uM after 24 hrs; format: cell-based; conditions: mcf7, 24 h
MCF7 [2] = experiment: Antiproliferative activity against human MCF7 cells assessed as cell viability after 48 hrs by MTT assay; format: functional, cell-based; conditions: MCF7, 48 h
MCF7 [3] = experiment: Induction of morphological changes in human MCF7 cells assessed as cell shrinkage at 5 uM after 24 to 48 hrs by confocal microscopic analysis relative to untreated control; format: functional, cell-based
MCF7 [4] = experiment: Antimigratory activity against human MCF7 cells assessed as inhibition of wound-healing activity at 5 uM after 48 hrs by phase contrast microscopic analysis relative to untreated control; format: functional
MCF7 [5] = experiment: Induction of alpha-tubulin mislocalization in human MCF7 cells assessed as appearance of aggregated protein around nucleus at 5 uM after 24 to 48 hrs by confocal microscopic analysis relative to untreated control; format: functional, cell-based
MCF7 [6] = experiment: Ratio of cytotoxic activity to antimigratory activity against human MCF7 cells; format: functional
MCF7 [7] = experiment: Antimigratory activity against human MCF7 cells assessed as inhibition of wound-healing activity at 1 uM after 24 hrs by phase contrast microscopic analysis relative to untreated control; format: functional, cell-based
MCF7 [8] = experiment: Inhibition of F-actin structural changes in human MCF7 cells at 25 uM after 24 to 48 hrs using AlexaFluor 488 and TRITC staining by confocal microscopic analysis; format: functional, cell-based
MCF7 [9] = experiment: Induction of morphological changes in human MCF7 cells at 1 uM after 24 to 48 hrs by confocal microscopic analysis relative to untreated control; format: functional, cell-based
MCF7 [10] = experiment: Induction of cortical alpha-tubulin structural changes in human MCF7 cells at 25 uM after 24 to 48 hrs using AlexaFluor 488 and TRITC staining by confocal microscopic analysis relative to untreated control; format: functional, cell-based
MCF7 [11] = experiment: Antiproliferative activity against human MCF7 cells assessed as cell viability at 100 uM after 48 hrs by MTT assay; format: functional, cell-based

| IC50 (MCF7 [2]) [µM] | SMILES | Activity (MCF7 [1]) | Activity (MCF7 [3]) | inhibition at 5 µM (MCF7 [4]; MCF7, 48 h) [%] | Activity (MCF7 [5]) | Ratio (MCF7 [6]) | Activity (MCF7 [7]) | inhibition (MCF7 [8]) | Activity (MCF7 [9]) | inhibition (MCF7 [10]) | inhibition (MCF7 [4]) | Activity (MCF7 [11]) |
| --- | --- | --- | --- | --- | --- | --- | --- | --- | --- | --- | --- | --- |
| 61.5 | CC(C)C[C@H](NC(=O)[C@H](Cc1c[nH]c2ccccc12)NC(=O)[C@@H](N)CCCCN)C(=O)N[C@@H](CCCNC(=N)N)C(=O)N[C@@H](CCCNC(=N)N)C(=O)N[C@H](C(=O)N[C@@H](Cc1c[nH]c2ccccc12)C(=O)N[C@@H](CCCNC(=N)N)C(=O)N[C@@H](Cc1c[nH]c2ccccc12)C(=O)N[C@@H](Cc1c[nH]c2ccccc12)C(=O)N[C@@H](CCCNC(=N)N)C(N)=O)C(C)C (H-KWLRRVWRWWR-NH2) | Toxic | Active | 40 | Active | 10 | inactive | Active | inactive | Active | – | – |
| – | CC(C)C[C@H](NC(=O)[C@H](CCCNC(=N)N)NC(=O)[C@@H](N)CCCCN)C(=O)N[C@@H](CCCNC(=N)N)C(=O)N[C@@H](CCCNC(=N)N)C(=O)N[C@H](C(=O)N[C@@H](Cc1c[nH]c2ccccc12)C(=O)N[C@@H](CCCNC(=N)N)C(=O)N[C@@H](CCCNC(=N)N)C(=O)N[C@@H](Cc1c[nH]c2ccccc12)C(=O)N[C@@H](CCCNC(=N)N)C(N)=O)C(C)C (H-KRLRRVWRRWR-NH2) | – | – | – | – | – | – | – | – | – | inactive | inactive |

Source: ChEMBL document CHEMBL2429744, “Anticancer activities of an antimicrobial peptide derivative of Ixosin-B amide” (Bioorg Med Chem Lett, 2013)
